# Laboratory results published in patent US8609362B2, “G-proteins” (Givaudan SA, priority 2002, dated 2013).
# What was measured:
# Format in all cases: cell-based
# human TAS2R44 = target: T1, human TAS2R44 (Homo sapiens, UniProt P59538); assay: Fluo-4 calcium assay, tetracycline-inducible cells stably expressing human TAS2R44 and G16gust44; settings: ligand 10 μM
# T1 construct: expressed in transfected cells
# T1 sequence (P59538 1-309): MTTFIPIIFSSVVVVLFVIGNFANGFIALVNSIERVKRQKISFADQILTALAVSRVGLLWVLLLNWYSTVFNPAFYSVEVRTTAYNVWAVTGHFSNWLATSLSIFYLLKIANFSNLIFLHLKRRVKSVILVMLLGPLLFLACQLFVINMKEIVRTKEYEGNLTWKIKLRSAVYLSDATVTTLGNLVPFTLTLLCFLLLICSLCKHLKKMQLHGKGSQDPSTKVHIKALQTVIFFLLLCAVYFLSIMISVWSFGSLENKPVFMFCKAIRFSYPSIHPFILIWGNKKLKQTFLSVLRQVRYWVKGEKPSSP
# Source text: (§1) The following results were obtained:
# human TAS2R43 = target: T2, human TAS2R43 (Homo sapiens, UniProt P59537); assay: Fluo-4 calcium assay, tetracycline-inducible cells stably expressing human TAS2R43 and G16gust44; settings: ligand 10 μM
# T2 construct: expressed in transfected cells
# T2 sequence (P59537 1-309): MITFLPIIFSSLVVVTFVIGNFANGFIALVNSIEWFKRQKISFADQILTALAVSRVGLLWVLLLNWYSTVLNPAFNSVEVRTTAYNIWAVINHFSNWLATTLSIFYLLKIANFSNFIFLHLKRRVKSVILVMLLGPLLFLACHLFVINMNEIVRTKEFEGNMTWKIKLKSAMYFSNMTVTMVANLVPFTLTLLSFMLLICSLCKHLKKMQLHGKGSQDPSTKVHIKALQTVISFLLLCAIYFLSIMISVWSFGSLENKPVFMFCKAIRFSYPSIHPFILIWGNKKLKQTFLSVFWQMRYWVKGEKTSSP
# Source text: as §1
# G-protein only [1] = assay: Fluo-4 calcium assay, G-protein only control (TAS2R43 cell line); settings: Gα16gustducin44, ligand 10 μM
# Source text: as §1
# G-protein only [2] = assay: Fluo-4 calcium assay, G-protein only control (TAS2R44 cell line); settings: Gα16gustducin44, ligand 10 μM
# Source text: as §1
structure (smiles),measurement,setting,value
COc1cccc2c1cc([N+](=O)[O-])c1c(C(=O)O)cc3c(c12)OCO3 [aristolochic acid],increase in mean fluorescence over baseline following ligand addition,"human TAS2R44; G-protein + human TAS2R44, Gα16gustducin44",17254 RFUs
same,fluorescence signal (in words),"human TAS2R44; HEK293 T-Rex cells, TAS2R44, G16-gustducin 44",robust fluorescence signal
same,increase in mean fluorescence over baseline following ligand addition,"human TAS2R43; G-protein + human TAS2R43, Gα16gustducin44",26766 RFUs
same,fluorescence signal (in words),"human TAS2R43; HEK293 T-Rex cells, TAS2R43, G16-gustducin 44",robust fluorescence signal
same,increase in mean fluorescence over baseline following ligand addition,G-protein only [1],3955 RFUs
same,increase in mean fluorescence over baseline following ligand addition,G-protein only [2],5700 RFUs
